In patent publication US9090535B2, “Hydroxylated tricyclic compounds” (Nektar Therapeutics, priority 2010, dated 2015):
Where a name gives a salt, the structure may show the parent alone. Read-outs that look alike come from different tables or passages of the source.

Assays:
[1] = biological target: T1, human norepinephrine transporter (hNET) (Homo sapiens, UniProt P23975); assay: Binding affinity to human norepinephrine transporter (hNET), [3H]Nisoxetine displacement; details: membranes from MDCK cells expressing hNET, [3H]Nisoxetine 2 nM, read-out: NET binding, Ki
T1 construct: expressed in transfected cells; host or cells: MDCK cells
T1 sequence (P23975 whole entry): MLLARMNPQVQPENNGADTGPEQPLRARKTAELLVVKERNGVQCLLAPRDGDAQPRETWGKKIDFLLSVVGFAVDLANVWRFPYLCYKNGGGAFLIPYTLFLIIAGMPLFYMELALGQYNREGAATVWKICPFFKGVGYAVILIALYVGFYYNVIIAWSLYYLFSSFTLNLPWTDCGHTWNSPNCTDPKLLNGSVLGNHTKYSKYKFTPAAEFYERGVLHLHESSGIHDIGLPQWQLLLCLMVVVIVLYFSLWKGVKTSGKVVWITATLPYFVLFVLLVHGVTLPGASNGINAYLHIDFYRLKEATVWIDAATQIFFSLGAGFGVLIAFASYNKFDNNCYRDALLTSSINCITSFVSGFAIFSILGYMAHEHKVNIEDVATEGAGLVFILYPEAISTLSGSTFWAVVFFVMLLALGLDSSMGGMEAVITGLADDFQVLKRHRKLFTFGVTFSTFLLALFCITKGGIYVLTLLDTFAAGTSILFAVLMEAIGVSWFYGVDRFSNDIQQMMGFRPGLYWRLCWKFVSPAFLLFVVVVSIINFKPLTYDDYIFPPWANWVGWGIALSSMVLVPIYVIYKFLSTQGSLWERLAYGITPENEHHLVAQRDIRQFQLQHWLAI
Protocol: The binding affinities of certain compounds disclosed herein to the hNET were measured using competitive radioligand displacement assays in membranes prepared from MDCK cells that express the human norepinephrine transporter. Competition binding experiments were conducted by incubating hNET membranes with [^3H] Nisoxetine (2 nM), in the presence of increasing concentrations of test compounds. Incubations were carried out at 4° C. for 60 minutes in buffer containing 50 mM Tris HCl, 120 mM NaCl and 5 mM KCl (pH 7.4). The binding reaction was terminated by rapid filtration, membranes were washed and membrane-bound radioactivity was measured using a scintillation counter. Non-specific binding was measured in the presence of excess (10 μM) clomipramine as the unlabelled ligand and this value was subtracted from the total binding to yield the specific binding at each test compound concentration.
IC50 values were obtained from non-linear regression analysis of concentration-versus specific binding plots. Ki values were calculated from the IC50 values using the Cheng Prusoff correction and experimentally determined […] values for the radioligand under these assay conditions.

[2] = tested on: sodium channels (sodium current INa) in rat dorsal root ganglion (DRG) cells; assay: Sodium channel assay, whole-cell patch clamp of sodium current in isolated DRG cells; format: cell-based
Excerpt: The effect of compounds disclosed herein on sodium channels may be evaluated in vitro to determine their blocking properties using the whole-cell patch clamp method in isolated cardiac (human atrial myocytes) and neuronal (rat dorsal root ganglion) cells. The example below refers to a sodium channel assay using neuronal cells.
Electrophysiologic patch clamp recordings of the sodium current in isolated rat dorsal root ganglion (DRG) cells were used to measure the sodium channel blocking properties of certain compounds disclosed herein. DRG cells were isolated according to the method of Blair and Bean (J Neurosci, 22: pp. 10277-10290, 2002) and plated on treated glass coverslips. For measuring the sodium current, cells were perfused with an external solution that consists of (in mmol/L): 115 TMA chloride, 10 NaCl, 5 CsCl, 1.8 CaCl2, 1.2 MgCl2, 10 HEPES, 11 dextrose, pH adjusted to 7.4 with TMA-OH. The chemical composition of the internal solution was (in mmol/L): 115 CsF, 20 CsCl, 10 NaF, 10 HEPES, 5 EGTA; pH adjusted to 7.2 with CsOH. Currents were measured using the whole-cell variant of the patch clamp method (Crumb & Clarkson, Biophysical Journal, 57(3): 589, 1990). An Axopatch 1-B amplifier (Axon Instruments, Foster City, Calif.) was used for whole-cell voltage clamping. Creation of voltage clamp pulses and data acquisition were controlled by a PC running pClamp software (version 9.2, Axon Instruments). INa was elicited by a 40 ms pulse to −20 mV from a holding potential of −65 mV. Pacing rates of 0.1 and 3 Hz were examined. […]. Four concentrations of each test compound were added to the cell in a cumulative manner starting with the lowest test concentration. Each cell served as its own control and data are presented as % reduction of current amplitude achieved in the presence of drug. A nonlinear curve fitting routine was utilized to fit a three-parameter Hill equation to the results using MicroCal Origin, version 6.0 software. The equation was: […]

[3] = biological target: T2, cloned human hERG channel (Homo sapiens, UniProt Q12809); assay: In vitro effect on hERG channels, whole-cell patch clamp in HEK cells; format: cell-based; details: 37 °C, read-out: IhERG, 0.1 HZ, IC50
T2 construct: expressed in transfected cells; host or cells: HEK cells
T2 sequence (Q12809 whole entry): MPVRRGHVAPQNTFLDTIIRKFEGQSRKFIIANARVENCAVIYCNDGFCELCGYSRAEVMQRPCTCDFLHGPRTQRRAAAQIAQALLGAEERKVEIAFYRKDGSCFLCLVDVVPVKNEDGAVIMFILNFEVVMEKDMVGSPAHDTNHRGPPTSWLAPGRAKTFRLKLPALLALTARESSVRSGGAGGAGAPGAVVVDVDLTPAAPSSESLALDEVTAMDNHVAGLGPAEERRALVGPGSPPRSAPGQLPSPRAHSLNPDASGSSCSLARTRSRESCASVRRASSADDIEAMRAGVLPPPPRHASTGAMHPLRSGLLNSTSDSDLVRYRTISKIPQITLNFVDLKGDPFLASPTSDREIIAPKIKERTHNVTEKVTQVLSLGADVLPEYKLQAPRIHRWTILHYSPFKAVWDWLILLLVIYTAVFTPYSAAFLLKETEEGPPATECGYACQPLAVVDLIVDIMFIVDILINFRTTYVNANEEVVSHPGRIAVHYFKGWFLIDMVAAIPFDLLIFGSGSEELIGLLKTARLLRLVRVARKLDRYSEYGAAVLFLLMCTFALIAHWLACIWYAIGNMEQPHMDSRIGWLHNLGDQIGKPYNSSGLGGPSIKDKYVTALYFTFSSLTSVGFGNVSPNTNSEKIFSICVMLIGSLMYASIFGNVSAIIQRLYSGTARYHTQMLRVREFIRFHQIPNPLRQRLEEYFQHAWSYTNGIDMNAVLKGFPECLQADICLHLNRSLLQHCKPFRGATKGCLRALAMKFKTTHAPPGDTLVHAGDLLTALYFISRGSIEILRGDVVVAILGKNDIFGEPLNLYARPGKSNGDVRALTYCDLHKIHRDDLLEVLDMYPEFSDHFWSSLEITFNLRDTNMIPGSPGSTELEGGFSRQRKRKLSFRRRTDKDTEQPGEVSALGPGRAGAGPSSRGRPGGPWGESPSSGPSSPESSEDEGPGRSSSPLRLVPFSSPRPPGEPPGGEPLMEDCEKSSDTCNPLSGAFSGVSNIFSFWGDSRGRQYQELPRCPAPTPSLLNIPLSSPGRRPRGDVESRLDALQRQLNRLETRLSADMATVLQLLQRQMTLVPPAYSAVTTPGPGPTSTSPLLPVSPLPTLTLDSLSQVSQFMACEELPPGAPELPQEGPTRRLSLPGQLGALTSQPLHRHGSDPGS
Protocol: Electrophysiological measurements of hERG current were made in vitro to assess the hERG block produced by certain compounds disclosed herein. hERG currents were measured in HEK cells expressing the cloned human hERG channel using the whole-cell variant of the patch clamp method. Experiments were performed at 37±1° C. An Axopatch 1-B amplifier (Axon Instruments, Foster City, Calif.) was used for whole-cell voltage clamping. Creation of voltage clamp pulses and data acquisition was controlled by a PC running pClamp software (version 9.2, Axon Instruments). After rupture of the cell membrane (entering whole-cell mode), current kinetics and amplitudes were allowed to stabilize for 3-5 minutes as the cell was dialyzed with internal solution and paced at 0.1 Hz. Cells were depolarized to +10 mV for 500 ms from a holding potential of −75 mV and peak hERG current was measured as the maximum outward deflection of the tail current elicited upon return to −40 mV (pacing rate=0.1 Hz). Four concentrations of each test compound were added to the cell in a cumulative manner starting with the lowest test concentration. Each cell served as its own control and data are presented as % reduction of current amplitude achieved in the presence of drug.
A nonlinear curve fitting routine was utilized to fit a three-parameter Hill equation to the results using MicroCal Origin, version 6.0 software. The equation was: […]

SMILES | Ki ([1]; Table 1) [µM] | IC50 ([2]; Table 1, pacing rate 3 Hz) [µM] | IC50 ([3]; Table 1, pacing rate 0.1 Hz) [µM] | Ki ([1]; Table 2) [µM] | IC50 ([2]; Table 2, pacing rate 3 Hz) [µM] | IC50 ([3]; Table 2, pacing rate 0.1 Hz) [µM]
CN(C)CC/C=C1/c2ccccc2CCc2cc(O)ccc21 [(Z)-5-(3-(dimethylamino)propylidene)-10,11-dihydro-5H-dibenzo[a,d][7]annulen-2-ol, reference compound] | 0.5 | 14.9 | 1.6 |  |  | 
COCCOCCOCCOCCOCCOCCOCCOCCO[C@@H]1Cc2ccccc2/C(=C\CCN(C)C)c2ccccc21 [(R)-5-(3-dimethylamino-propylidene)-10-OmPEG8-10,11-dihydro-5H-dibenzo[a,d]cyclohept-E-ene trifluoroacetate salt] |  |  |  | 13.5 | 21.2 | 55.9
COCCOCCOCCOCCO[C@@H]1Cc2ccccc2/C(=C\CCN(C)C)c2ccccc21 [(R)-5-(3-dimethylamino-propylidene)-10-OmPEG4-10,11-dihydro-5H-dibenzo[a,d]cyclohept-E-ene trifluoroacetate salt] |  |  |  | 28.1 | 21.3 | 39.9
COCCOCCOCCOCCOc1ccc2c(c1)CCc1ccccc1/C2=C\CCN(C)C [5-(3-Dimethylamino-propylidene)-10,11-dihydro-5H-dibenzo[a,d]cyclohept-E-en-2-OmPEG4 hydrochloride salt] | 60.8 | 6.8 | 5.8 |  |  | 
